Assays:
Assay in all cases: Competitive isoTOP-ABPP in situ (fragment-treated cells)
Assay type in all cases: cell-based
[1] = target: T1, cysteines in MDA-MB-231 and Ramos cells (Homo sapiens, UniProt P42224)
T1 sequence (P42224 1-750): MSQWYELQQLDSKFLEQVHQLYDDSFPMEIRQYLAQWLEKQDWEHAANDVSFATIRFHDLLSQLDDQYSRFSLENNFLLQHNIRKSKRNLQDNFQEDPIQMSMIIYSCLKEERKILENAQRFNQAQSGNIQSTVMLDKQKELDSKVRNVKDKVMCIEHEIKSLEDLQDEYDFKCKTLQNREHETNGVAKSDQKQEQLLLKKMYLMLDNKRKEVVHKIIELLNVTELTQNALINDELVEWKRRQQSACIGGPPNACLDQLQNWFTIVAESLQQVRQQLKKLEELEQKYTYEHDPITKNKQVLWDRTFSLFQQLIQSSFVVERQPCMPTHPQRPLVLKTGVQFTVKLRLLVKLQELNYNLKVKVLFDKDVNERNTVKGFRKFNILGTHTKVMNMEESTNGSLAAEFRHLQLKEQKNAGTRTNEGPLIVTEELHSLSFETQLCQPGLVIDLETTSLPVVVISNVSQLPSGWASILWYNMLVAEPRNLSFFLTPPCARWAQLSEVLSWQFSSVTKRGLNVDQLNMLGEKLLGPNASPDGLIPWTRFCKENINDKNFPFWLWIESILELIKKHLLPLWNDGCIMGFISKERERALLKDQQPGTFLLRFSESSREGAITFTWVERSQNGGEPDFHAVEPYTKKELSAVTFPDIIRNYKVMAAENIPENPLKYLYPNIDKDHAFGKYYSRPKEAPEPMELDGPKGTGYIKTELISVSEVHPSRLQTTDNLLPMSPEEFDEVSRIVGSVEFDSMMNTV
Experimental: (§1) Fragments 4 and 11 were screened at 100 μM in situ. […] Site-specific engagement of electrophilic fragments was assessed by blockade of IA-alkyne probe labeling. […] Ratios for unique peptide entries were calculated for each experiment; overlapping peptides with the same modified cysteine (e.g. different charge states, MudPIT chromatographic steps or tryptic termini) were grouped together and the median ratio was reported as the final ratio (R). The peptide ratios reported by CIMAGE were further filtered to ensure the removal or correction of low quality ratios in each individual dataset. […] R values were calculated and individual datasets were filtered as described above (R value calculation and processing).

[2] = target: T2, cysteines in MDA-MB-231 and Ramos cells (Homo sapiens, UniProt O95571)
T2 sequence (O95571 8-254): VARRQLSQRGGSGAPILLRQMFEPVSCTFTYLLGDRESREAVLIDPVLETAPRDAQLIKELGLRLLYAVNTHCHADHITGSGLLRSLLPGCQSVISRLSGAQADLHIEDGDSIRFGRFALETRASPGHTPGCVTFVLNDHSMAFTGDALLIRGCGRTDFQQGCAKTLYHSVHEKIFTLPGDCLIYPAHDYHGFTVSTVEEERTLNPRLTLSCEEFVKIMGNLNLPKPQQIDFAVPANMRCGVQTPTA
Experimental: as §1

[3] = target: T3, cysteines in MDA-MB-231 and Ramos cells (Homo sapiens, UniProt Q9NYL9)
T3 sequence (Q9NYL9 1-352): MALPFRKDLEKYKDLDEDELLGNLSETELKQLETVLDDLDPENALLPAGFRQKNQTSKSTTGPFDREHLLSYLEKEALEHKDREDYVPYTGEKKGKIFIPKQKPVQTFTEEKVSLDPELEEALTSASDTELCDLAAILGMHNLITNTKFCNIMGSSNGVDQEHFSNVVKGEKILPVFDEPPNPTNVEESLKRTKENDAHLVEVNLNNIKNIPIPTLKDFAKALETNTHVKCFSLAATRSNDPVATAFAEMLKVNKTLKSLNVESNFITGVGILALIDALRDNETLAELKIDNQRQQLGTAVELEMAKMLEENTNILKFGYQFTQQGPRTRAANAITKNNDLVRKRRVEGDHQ
Experimental: as §1

[4] = target: T4, cysteines in MDA-MB-231 and Ramos cells (Homo sapiens, UniProt O75521)
T4 sequence (O75521 39-394): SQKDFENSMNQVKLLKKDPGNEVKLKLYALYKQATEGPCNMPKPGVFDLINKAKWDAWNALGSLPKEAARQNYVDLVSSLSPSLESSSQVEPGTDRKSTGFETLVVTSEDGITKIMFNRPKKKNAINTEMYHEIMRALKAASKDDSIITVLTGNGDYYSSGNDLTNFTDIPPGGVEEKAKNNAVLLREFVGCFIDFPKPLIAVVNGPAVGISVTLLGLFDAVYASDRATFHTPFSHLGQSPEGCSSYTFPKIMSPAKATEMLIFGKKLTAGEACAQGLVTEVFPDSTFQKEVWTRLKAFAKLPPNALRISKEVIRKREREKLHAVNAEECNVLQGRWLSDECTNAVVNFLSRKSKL
Experimental: as §1

[5] = target: cysteines in MDA-MB-231 and Ramos cells (Homo sapiens, UniProt P15121)
Experimental: as §1

[6] = target: cysteines in MDA-MB-231 and Ramos cells (Homo sapiens, UniProt Q9Y696)
cysteines in MDA-MB-231 and Ramos cells (Homo sapiens, UniProt Q9Y696), sequence (Q9Y696 whole entry): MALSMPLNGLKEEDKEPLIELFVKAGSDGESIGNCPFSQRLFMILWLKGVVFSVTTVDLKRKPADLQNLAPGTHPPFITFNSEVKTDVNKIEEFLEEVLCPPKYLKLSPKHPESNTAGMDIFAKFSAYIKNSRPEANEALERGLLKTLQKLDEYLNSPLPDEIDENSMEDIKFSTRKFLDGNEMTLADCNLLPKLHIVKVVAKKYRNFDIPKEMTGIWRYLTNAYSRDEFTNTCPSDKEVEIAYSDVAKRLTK
Experimental: as §1

[7] = target: T5, cysteines in MDA-MB-231 and Ramos cells (Homo sapiens, UniProt P78417)
T5 sequence (P78417 1-241): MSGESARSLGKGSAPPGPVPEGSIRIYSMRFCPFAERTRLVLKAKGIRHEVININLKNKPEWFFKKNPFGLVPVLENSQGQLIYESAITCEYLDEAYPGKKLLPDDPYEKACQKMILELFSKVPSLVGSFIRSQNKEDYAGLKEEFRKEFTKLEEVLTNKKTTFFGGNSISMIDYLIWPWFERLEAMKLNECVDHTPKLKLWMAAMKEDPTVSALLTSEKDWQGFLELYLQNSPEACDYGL
Experimental: as §1

| SMILES | isoTOP-ABPP ratio P42224_C492 ([1]; 200 μM, insitu, 231) | isoTOP-ABPP ratio P78417_C32 ([7]; 200 μM, insitu, 231) | isoTOP-ABPP ratio O95571_C170 ([2]; 200 μM, insitu, 231) | isoTOP-ABPP ratio O75521_C312 ([4]; 200 μM, insitu, 231) | isoTOP-ABPP ratio O75521_C380 ([4]; 200 μM, insitu, 231) | isoTOP-ABPP ratio P15121_C299 ([5]; 200 μM, insitu, 231) | isoTOP-ABPP ratio Q9Y696_C35 ([6]; 200 μM, insitu, 231) | isoTOP-ABPP ratio Q9NYL9_C132 ([3]; 200 μM, insitu, 231) | other results |
| --- | --- | --- | --- | --- | --- | --- | --- | --- | --- |
| COc1ccc2c(c1)CCCN2C(=O)CCl [compound 2] | – | – | – | – | – | – | – | – | isoTOP-ABPP reactivity P42224_C492 STAT1 ([1]; 200 μM, insitu, 231): 16.9; isoTOP-ABPP reactivity O95571_C170 ETHE1 ([2]; 200 μM, insitu, 231): 3.8; isoTOP-ABPP reactivity Q9NYL9_C132 TMOD3 ([3]; 200 μM, insitu, 231): 2.2; isoTOP-ABPP reactivity O75521_C312 ECI2 ([4]; 200 μM, insitu, 231): 0.7; isoTOP-ABPP reactivity O75521_C380 ECI2 ([4]; 200 μM, insitu, 231): 0.6; isoTOP-ABPP reactivity P15121_C299 AKR1B1 ([5]; 200 μM, insitu, 231): 0.9; isoTOP-ABPP reactivity Q9Y696_C35 CLIC4 ([6]; 200 μM, insitu, 231): 1.7 |
| COc1ccc(C2CC(c3cccs3)=NN2C(=O)CCl)cc1 (stereo not drawn) [compound 4] | – | – | – | – | – | – | – | – | isoTOP-ABPP reactivity P78417_C32 GSTO1 ([7]; 100 μM in situ 231): 19.9; isoTOP-ABPP reactivity O95571_C170 ETHE1 ([2]; 100 μM in situ 231): 2.3; isoTOP-ABPP reactivity Q9NYL9_C132 TMOD3 ([3]; 100 μM in situ 231): 0.8; isoTOP-ABPP reactivity O75521_C312 ECI2 ([4]; 100 μM in situ 231): 1.0; isoTOP-ABPP reactivity O75521_C380 ECI2 ([4]; 100 μM in situ 231): 1.6; isoTOP-ABPP reactivity P15121_C299 AKR1B1 ([5]; 100 μM in situ 231): 1.0; isoTOP-ABPP reactivity Q9Y696_C35 CLIC4 ([6]; 100 μM in situ 231): 20.0 |
| COc1cc2c(cc1OC)CN(C(=O)CCl)CC2 [compound 8] | – | – | – | – | – | – | – | – | isoTOP-ABPP reactivity P78417_C32 GSTO1 ([7]; 200 μM, insitu, 231): 20.0; isoTOP-ABPP reactivity O95571_C170 ETHE1 ([2]; 200 μM, insitu, 231): 6.8; isoTOP-ABPP reactivity Q9NYL9_C132 TMOD3 ([3]; 200 μM, insitu, 231): 0.9; isoTOP-ABPP reactivity O75521_C312 ECI2 ([4]; 200 μM, insitu, 231): 0.5; isoTOP-ABPP reactivity O75521_C380 ECI2 ([4]; 200 μM, insitu, 231): 0.8; isoTOP-ABPP reactivity P15121_C299 AKR1B1 ([5]; 200 μM, insitu, 231): 1.7; isoTOP-ABPP reactivity Q9Y696_C35 CLIC4 ([6]; 200 μM, insitu, 231): 4.7 |
| O=C(CCl)N1CCC(Cc2ccccc2)CC1 [compound 9] | – | – | – | – | – | – | – | – | isoTOP-ABPP reactivity P42224_C492 STAT1 ([1]; 200 μM, insitu, 231): 3.1; isoTOP-ABPP reactivity O95571_C170 ETHE1 ([2]; 200 μM, insitu, 231): 2.0; isoTOP-ABPP reactivity Q9NYL9_C132 TMOD3 ([3]; 200 μM, insitu, 231): 7.6; isoTOP-ABPP reactivity O75521_C312 ECI2 ([4]; 200 μM, insitu, 231): 0.5; isoTOP-ABPP reactivity O75521_C380 ECI2 ([4]; 200 μM, insitu, 231): 0.7; isoTOP-ABPP reactivity P15121_C299 AKR1B1 ([5]; 200 μM, insitu, 231): 1.4; isoTOP-ABPP reactivity Q9Y696_C35 CLIC4 ([6]; 200 μM, insitu, 231): 2.6 |
| O=C(CCl)N1CCN(S(=O)(=O)c2ccccc2F)CC1 [compound 10] | 20.0 | 20.0 | 9.0 | 5.0 | 4.8 | 20.0 | 2.7 | – | isoTOP-ABPP ratio P78417_C32 ([7]; 200 μM, insitu, ramos): 20.0; isoTOP-ABPP ratio Q9Y696_C35 ([6]; 200 μM, insitu, ramos): 1.6 |
| Cn1cc(S(=O)(=O)N2CCOCC2)cc1C(=O)NC(=O)CCl [compound 11] | – | – | – | – | – | – | – | – | isoTOP-ABPP ratio P42224_C492 ([1]; 100 μM in situ 231): 0.7; isoTOP-ABPP ratio O95571_C170 ([2]; 100 μM in situ 231): 1.2; isoTOP-ABPP ratio Q9NYL9_C132 ([3]; 100 μM in situ 231): 0.5; isoTOP-ABPP ratio O75521_C380 ([4]; 100 μM in situ 231): 0.8; isoTOP-ABPP ratio P15121_C299 ([5]; 100 μM in situ 231): 0.7; isoTOP-ABPP ratio Q9Y696_C35 ([6]; 100 μM in situ 231): 1.9 |
| O=C(CCl)NC(=O)NC12CC3CC(CC(C3)C1)C2 [compound 12] | 1.0 | 20.0 | 6.3 | 4.2 | 1.9 | 0.7 | 20.0 | 0.6 | – |
| O=C(CCl)NCCc1c[nH]c2ccccc12 [compound 13] | 1.0 | 20.0 | 1.2 | 0.7 | 1.0 | – | 2.3 | – | isoTOP-ABPP ratio P78417_C32 ([7]; 200 μM, insitu, ramos): 20.0; isoTOP-ABPP ratio O95571_C170 ([2]; 200 μM, insitu, ramos): 1.9; isoTOP-ABPP ratio P15121_C299 ([5]; 200 μM, insitu, ramos): 0.8; isoTOP-ABPP ratio Q9Y696_C35 ([6]; 200 μM, insitu, ramos): 3.2 |
| O=C(CCl)NC12CC3CC(CC(C3)C1)C2 [compound 21] | 0.7 | – | 1.7 | 1.6 | 1.8 | 2.7 | 1.1 | 1.4 | – |
| CC(C)CCOCCNC(=O)CCl [compound 27] | – | 20.0 | 1.1 | 1.1 | 1.6 | 0.5 | 1.0 | 0.6 | – |
| COc1ccccc1OCCNC(=O)CCl [compound 28] | 0.8 | 20.0 | – | – | 0.8 | 0.8 | 2.7 | 0.7 | – |
| O=C(CCl)N1CCN(CC(=O)N2CCOCC2)CC1 [compound 29] | – | – | – | – | – | – | – | – | isoTOP-ABPP ratio P42224_C492 ([1]; 200 μM, insitu, ramos): 3.8; isoTOP-ABPP ratio P78417_C32 ([7]; 200 μM, insitu, ramos): 20.0; isoTOP-ABPP ratio O95571_C170 ([2]; 200 μM, insitu, ramos): 1.5; isoTOP-ABPP ratio Q9NYL9_C132 ([3]; 200 μM, insitu, ramos): 0.9; isoTOP-ABPP ratio O75521_C380 ([4]; 200 μM, insitu, ramos): 1.2; isoTOP-ABPP ratio P15121_C299 ([5]; 200 μM, insitu, ramos): 1.1; isoTOP-ABPP ratio Q9Y696_C35 ([6]; 200 μM, insitu, ramos): 1.0 |
| C=CC(=O)N(Cc1cccnc1)c1cc(C(F)(F)F)cc(C(F)(F)F)c1 [compound 31] | 0.8 | 0.8 | – | – | – | 0.8 | 0.6 | 0.7 | isoTOP-ABPP ratio P42224_C492 ([1]; 200 μM, insitu, ramos): 1.9; isoTOP-ABPP ratio P78417_C32 ([7]; 200 μM, insitu, ramos): 2.6; isoTOP-ABPP ratio Q9NYL9_C132 ([3]; 200 μM, insitu, ramos): 0.7; isoTOP-ABPP ratio P15121_C299 ([5]; 200 μM, insitu, ramos): 1.3 |
| C=CC(=O)Nc1cc(F)c(N2CCN(C(=O)OC(C)(C)C)CC2)c(F)c1 [compound 38] | – | 1.0 | – | 1.1 | 0.9 | 1.0 | 1.0 | 2.6 | – |
| Cc1ccc(C=C(C#N)C(=O)NCCN2CCOCC2)cc1 [compound 41] | 0.6 | 0.3 | 1.1 | – | 1.1 | 0.9 | 0.6 | 0.3 | – |
| CC1CCc2ccccc2N1C(=O)CCl (stereo not drawn) [compound 45] | 20.0 | 1.9 | 3.1 | 0.7 | 1.2 | 1.0 | 1.4 | 0.9 | – |
| O=C(CCl)Nc1cccc2ncccc12 [compound 51] | 2.4 | – | – | – | 1.0 | 0.9 | 2.6 | 0.8 | – |
